Measured values published in ChEMBL document CHEMBL5346906, “Discovery of novel tranylcypromine-based derivatives as LSD1 inhibitors for gastric cancer treatment” (Eur J Med Chem, 2023).
Calls of active or inactive are those of the source. No cut-off for these calls is given here.

Columns and labels:
[1] = target: T1, Lysine-specific histone demethylase 1A (Homo sapiens, UniProt O60341); test: Inhibition of recombinant LSD1 (unknown origin) preincubated for 10 mins in presence of H3K4Me2 measured after 30 mins by measuring fluorescence intensity by fluorescence based microplate reader
[2] = target: T2, Amine oxidase [flavin-containing] A (Homo sapiens, UniProt P21397); test: Inhibition of MAO-A (unknown origin) measured by MAO-GloTM method
T2 sequence (P21397 whole entry): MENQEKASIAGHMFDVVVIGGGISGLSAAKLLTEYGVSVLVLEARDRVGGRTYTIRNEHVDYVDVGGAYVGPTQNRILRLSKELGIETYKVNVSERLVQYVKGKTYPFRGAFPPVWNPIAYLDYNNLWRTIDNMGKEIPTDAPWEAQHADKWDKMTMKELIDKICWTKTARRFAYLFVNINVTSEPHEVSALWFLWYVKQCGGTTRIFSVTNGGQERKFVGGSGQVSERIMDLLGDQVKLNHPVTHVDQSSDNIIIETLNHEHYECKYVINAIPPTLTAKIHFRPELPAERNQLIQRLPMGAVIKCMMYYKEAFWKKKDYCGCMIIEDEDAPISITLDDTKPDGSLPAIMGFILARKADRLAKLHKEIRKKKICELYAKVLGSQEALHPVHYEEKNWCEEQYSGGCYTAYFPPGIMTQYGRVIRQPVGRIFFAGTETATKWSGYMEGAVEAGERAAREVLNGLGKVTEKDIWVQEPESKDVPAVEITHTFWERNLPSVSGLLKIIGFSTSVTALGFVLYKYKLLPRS

[3] = tested on: MGC-803; test: Antiproliferative activity against human MGC-803 cells incubated for 48 hrs measured by MTT assay; assay type: functional, cell-based; details: MGC-803, 48 h
[4] = tested on: KYSE-450; test: Antiproliferative activity against human KYSE-450 cells incubated for 48 hrs measured by MTT assay; assay type: functional, cell-based; details: KYSE-450, 48 h
[5] = target: T1, Lysine-specific histone demethylase 1A; test: Inhibition of LSD1 in human MGC-803 cells assessed as increase in mono methylation of H3K4; assay type: cell-based; details: dose 0-24 µmol/L
[6] = target: T1, Lysine-specific histone demethylase 1A; test: Inhibition of LSD1 in human MGC-803 cells assessed as increase in methylation of H3K4 at 24 micromol/L; assay type: cell-based; details: dose 24.0 µmol/L
[7] = target: T1, Lysine-specific histone demethylase 1A; test: Inhibition of LSD1 in human MGC-803 cells assessed as increase in methylation of H3K9 at 24 micromol/L; assay type: cell-based; details: dose 24.0 µmol/L
[8] = target: T1, Lysine-specific histone demethylase 1A; test: Binding affinity to LSD1 in human MGC-803 cells assessed as thermal stability measured at 100 uM preincubated for 30 mins and incubated at 42 to 60 degreeC for 3 mins followed by cooled for 180 secs cycle repeated 3 times by CETSA based Western blotting analysis; assay type: cell-based; details: time 48.0 min
[9] = tested on: MGC-803; test: Induction of apoptosis in human MGC-803 cells assessed as morphological change of cells incubated at 8 to 24 micromol/L for 48 hrs measured by bright field microscopic analysis; assay type: functional, cell-based; details: dose 8-24 µmol/L
[10] = tested on: MGC-803; test: Induction of apoptosis in human MGC-803 cells assessed as early apoptotic cells at 8 micromol/L for 48 hrs by annexinV-FITC/PI staining based flow cytometric analysis (reference value: 2.92%); assay type: functional; details: dose 8 µmol/L, at 8 µM
[11] = tested on: MGC-803; test: Induction of apoptosis in human MGC-803 cells assessed as late apoptotic cells at 8 micromol/L for 48 hrs by annexinV-FITC/PI staining based flow cytometric analysis (reference value: 1.32%); assay type: functional; details: dose 8 µmol/L, at 8 µM
[12] = tested on: MGC-803; test: Induction of apoptosis in human MGC-803 cells assessed as late apoptotic cells at 24 micromol/L for 48 hrs by annexinV-FITC/PI staining based flow cytometric analysis (reference value: 1.32%); assay type: functional; details: dose 24 µmol/L, at 24 µM
[13] = tested on: MGC-803; test: Induction of apoptosis in human MGC-803 cells assessed as necrotic cells at 24 micromol/L for 48 hrs by annexinV-FITC/PI staining based flow cytometric analysis (reference value: 0.22%); assay type: functional; details: dose 24 µmol/L, at 24 µM
[14] = tested on: MGC-803; test: Induction of mitochondrial membrane potential depolarization in human MGC-803 assessed as viable cells measured at 8 micromol/L for 20 mins by JC-1 staining based flow cytometric analysis (reference value: 0.40%); assay type: functional; details: MGC-803, 20 min, dose 8 µmol/L, read-out: Activity
[15] = tested on: MGC-803; test: Induction of mitochondrial membrane potential depolarization in human MGC-803 assessed as early apoptotic cells measured at 8 micromol/L for 20 mins by JC-1 staining based flow cytometric analysis (reference value: 4.52%); assay type: functional; details: dose 8 µmol/L, at 8 µM
[16] = tested on: MGC-803; test: Induction of mitochondrial membrane potential depolarization in human MGC-803 assessed as late apoptotic cells measured at 8 micromol/L for 20 mins by JC-1 staining based flow cytometric analysis (reference value: 94.98%); assay type: functional; details: dose 8 µmol/L, at 8 µM
[17] = tested on: MGC-803; test: Induction of mitochondrial membrane potential depolarization in human MGC-803 assessed as viable cells measured at 16 micromol/L for 20 mins by JC-1 staining based flow cytometric analysis (reference value: 0.40%); assay type: functional; details: MGC-803, 20 min, dose 16 µmol/L, read-out: Activity
[18] = tested on: MGC-803; test: Induction of mitochondrial membrane potential depolarization in human MGC-803 assessed as early apoptotic cells measured at 16 micromol/L for 20 mins by JC-1 staining based flow cytometric analysis (reference value: 4.52%); assay type: functional; details: dose 16 µmol/L, at 16 µM
[19] = tested on: MGC-803; test: Induction of mitochondrial membrane potential depolarization in human MGC-803 assessed as late apoptotic cells measured at 16 micromol/L for 20 mins by JC-1 staining based flow cytometric analysis (reference value: 94.98%); assay type: functional; details: dose 16 µmol/L, at 16 µM
[20] = tested on: MGC-803; test: Induction of mitochondrial membrane potential depolarization in human MGC-803 assessed as necrotic cells measured at 16 micromol/L for 20 mins by JC-1 staining based flow cytometric analysis (reference value: 0.00%); assay type: functional; details: dose 16 µmol/L, at 16 µM
[21] = tested on: MGC-803; test: Induction of mitochondrial membrane potential depolarization in human MGC-803 assessed as early apoptotic cells measured at 24 micromol/L for 20 mins by JC-1 staining based flow cytometric analysis (reference value: 4.52%); assay type: functional; details: dose 24 µmol/L, at 24 µM
[22] = tested on: MGC-803; test: Induction of mitochondrial membrane potential depolarization in human MGC-803 assessed as late apoptotic cells measured at 24 micromol/L for 20 mins by JC-1 staining based flow cytometric analysis (reference value: 94.98%); assay type: functional; details: dose 24 µmol/L, at 24 µM
[23] = tested on: MGC-803; test: Induction of apoptosis in human MGC-803 cells assessed as decrease in anti-apoptotic Bcl-2 expression at 8 to 24 micromol/L; assay type: functional, cell-based; details: dose 8-24 µmol/L
[24] = tested on: MGC-803; test: Induction of apoptosis in human MGC-803 cells assessed as decrease in capase3 expression at 8 to 24 micromol/L; assay type: functional, cell-based; details: dose 8-24 µmol/L
[25] = tested on: MGC-803; test: Induction of apoptosis in human MGC-803 cells assessed as decrease in capase9 expression at 8 to 24 micromol/L; assay type: functional, cell-based; details: dose 8-24 µmol/L
[26] = tested on: MGC-803; test: Antiproliferative activity against human MGC-803 cells assessed as reduction in stemness of cells by measuring tumor ball diameter at 0 to 8 uM after 48 hrs using 3D-spheroid assay; assay type: functional, cell-based; details: dose 0-8 µM

- IC50 [1]: 0.0253 µM
- IC50 [2]: 1.23 µM
- IC50 [3]: 14.3 µM
- inhibition [5]: Dose-Dependent Effect
- inhibition [6]: Active
- inhibition [7]: Active
- Activity [8]: Active
Structure (SMILES): O=C(c1cccc(CN[C@@H]2C[C@H]2c2ccc(F)c(F)c2)c1)N1CCN(c2ccc(Cl)c(Cl)c2)CC1
- IC50 [4]: 22.8 µM
- Activity [9]: Active
- Activity [10]: 5.92%
- Activity [11]: 2.76%
- Activity [12]: 9.98%
- Activity [13]: 0.38%
- viability at 8 µM [14]: 0.52%
- Activity [15]: 6.3%
- Activity [16]: 93.18%
- viability at 16 µM [17]: 1.34%
- Activity [18]: 17.64%
- Activity [19]: 81%
- Activity [20]: 0.02%
- Activity [21]: 29.22%
- Activity [22]: 69.38%
- Activity [23]: Active
- Activity [24]: Active
- Activity [25]: Active
- Activity [26]: Active
